{"source": "paper PMC7031696", "about": "(Cell chemical biology, 2019)", "system": "3D7-MR4 trophozoite parasite-infected RBCs", "experiment": "Metabolomic profiling (hydrophilic metabolite changes, UHPLC-MS)", "assay_type": "cell-based, Plasmodium falciparum"}
{"smiles": "CN(C)Cc1ccc(-c2cc3c(-c4ccc(CN(C)C)cc4)ccnc3[nH]2)cc1.O=C(O)C(F)(F)F", "note": "[MMV022224]", "values": [{"measurement": "peptide levels (hemoglobin catabolism signature)", "setting": "10 × IC50^72h, 2.5 hr, trophozoites", "value": "increased levels of peptides"}, {"measurement": "Log2(fold changes) 1_3-Bisphosphoglyceric acid", "setting": "metabolite 1_3-Bisphosphoglyceric acid, log2 fold change", "value": 0.0000}, {"measurement": "Log2(fold changes) 2-Hydroxy-2-methylbutanedioic acid", "setting": "metabolite 2-Hydroxy-2-methylbutanedioic acid, log2 fold change", "value": 0.1756}, {"measurement": "Log2(fold changes) 2-Isopropylmalic acid", "setting": "metabolite 2-Isopropylmalic acid, log2 fold change", "value": 0.0000}, {"measurement": "Log2(fold changes) 2-dehydro-D-gluconate", "setting": "metabolite 2-dehydro-D-gluconate, log2 fold change", "value": 0.3564}, {"measurement": "Log2(fold changes) 2-oxo-4-methylthiobutanoate", "setting": "metabolite 2-oxo-4-methylthiobutanoate, log2 fold change", "value": 0.0000}, {"measurement": "Log2(fold changes) 2_3-Diphosphoglyceric acid", "setting": "metabolite 2_3-Diphosphoglyceric acid, log2 fold change", "value": -0.1549}, {"measurement": "Log2(fold changes) 3-phosphoglycerate", "setting": "metabolite 3-phosphoglycerate, log2 fold change", "value": -0.0795}, {"measurement": "Log2(fold changes) 3-phosphoserine", "setting": "metabolite 3-phosphoserine, log2 fold change", "value": -0.1712}, {"measurement": "Log2(fold changes) 4-Pyridoxic acid", "setting": "metabolite 4-Pyridoxic acid, log2 fold change", "value": 0.0566}, {"measurement": "Log2(fold changes) 4-aminobutyrate", "setting": "metabolite 4-aminobutyrate, log2 fold change", "value": -0.2938}, {"measurement": "Log2(fold changes) 4-phosphopantetheine", "setting": "metabolite 4-phosphopantetheine, log2 fold change", "value": -0.5209}, {"measurement": "Log2(fold changes) 4-phosphopantothenate", "setting": "metabolite 4-phosphopantothenate, log2 fold change", "value": 0.0735}, {"measurement": "Log2(fold changes) 5-aminopentanoic acid", "setting": "metabolite 5-aminopentanoic acid, log2 fold change", "value": 0.0000}, {"measurement": "Log2(fold changes) 5-methyl-THF", "setting": "metabolite 5-methyl-THF, log2 fold change", "value": 0.0000}, {"measurement": "Log2(fold changes) 5-phosphoribosyl-1-pyrophosphate", "setting": "metabolite 5-phosphoribosyl-1-pyrophosphate, log2 fold change", "value": -0.7551}, {"measurement": "Log2(fold changes) 6-phospho-D-gluconate", "setting": "metabolite 6-phospho-D-gluconate, log2 fold change", "value": -0.0328}, {"measurement": "Log2(fold changes) ADP-D-glucose", "setting": "metabolite ADP-D-glucose, log2 fold change", "value": 0.0037}, {"measurement": "Log2(fold changes) Acetyl-glycine", "setting": "metabolite Acetyl-glycine, log2 fold change", "value": 0.0000}, {"measurement": "Log2(fold changes) Acetyllysine", "setting": "metabolite Acetyllysine, log2 fold change", "value": 0.0000}, {"measurement": "Log2(fold changes) Aminoadipic acid", "setting": "metabolite Aminoadipic acid, log2 fold change", "value": 0.0000}, {"measurement": "Log2(fold changes) CDP", "setting": "metabolite CDP, log2 fold change", "value": -0.4119}, {"measurement": "Log2(fold changes) CDP-choline", "setting": "metabolite CDP-choline, log2 fold change", "value": 0.2972}, {"measurement": "Log2(fold changes) CDP-ethanolamine", "setting": "metabolite CDP-ethanolamine, log2 fold change", "value": 0.0000}, {"measurement": "Log2(fold change) of CMP", "setting": "metabolite CMP", "value": 0.3976}, {"measurement": "Log2(fold change) of CTP", "setting": "metabolite CTP", "value": -0.2057}, {"measurement": "Log2(fold changes) Citraconic acid", "setting": "metabolite Citraconic acid, log2 fold change", "value": 0.0000}, {"measurement": "Log2(fold change) of D-glucarate", "setting": "metabolite D-glucarate", "value": 0.0159}, {"measurement": "Log2(fold change) of D-gluconate", "setting": "metabolite D-gluconate", "value": -0.4042}, {"measurement": "Log2(fold change) of D-glucosamine-1/6-phosphate", "setting": "metabolite D-glucosamine-1/6-phosphate", "value": 0.0000}, {"measurement": "Log2(fold change) of D-sedoheptulose-1/7-phosphate", "setting": "metabolite D-sedoheptulose-1/7-phosphate", "value": 0.3067}, {"measurement": "Log2(fold change) of DL-Pipecolic Acid", "setting": "metabolite DL-Pipecolic Acid", "value": 0.0000}, {"measurement": "Log2(fold change) of DLH", "setting": "metabolite DLH", "value": 0.8439}, {"measurement": "Log2(fold change) of DLS", "setting": "metabolite DLS", "value": 0.5887}, {"measurement": "Log2(fold change) of Decanoyl-CoA", "setting": "metabolite Decanoyl-CoA", "value": 0.0000}, {"measurement": "Log2(fold change) of EV", "setting": "metabolite EV", "value": 0.0000}, {"measurement": "Log2(fold change) of FAD", "setting": "metabolite FAD", "value": 0.8383}, {"measurement": "Log2(fold change) of FMN", "setting": "metabolite FMN", "value": 0.1361}, {"measurement": "Log2(fold change) of G3P/DHAP", "setting": "metabolite G3P/DHAP", "value": 0.0585}, {"measurement": "Log2(fold change) of GDP", "setting": "metabolite GDP", "value": -0.5545}, {"measurement": "Log2(fold change) GMP", "setting": "metabolite GMP", "value": -0.0052}, {"measurement": "Log2(fold change) GTP", "setting": "metabolite GTP", "value": -0.2843}, {"measurement": "Log2(fold change) HVDD", "setting": "metabolite HVDD", "value": 0.7226}, {"measurement": "Log2(fold change) Hexose", "setting": "metabolite Hexose", "value": 0.3496}, {"measurement": "Log2(fold change) Hydroxyisocaproic acid", "setting": "metabolite Hydroxyisocaproic acid", "value": 0.0000}, {"measurement": "Log2(fold change) IDP", "setting": "metabolite IDP", "value": 0.0000}, {"measurement": "Log2(fold change) IMP", "setting": "metabolite IMP", "value": 0.0372}, {"measurement": "Log2(fold change) Inositol", "setting": "metabolite Inositol", "value": 0.0000}, {"measurement": "Log2(fold change) Isopentyl-PP", "setting": "metabolite Isopentyl-PP", "value": 0.0000}, {"measurement": "Log2(fold change) L-arginino-succinate", "setting": "metabolite L-arginino-succinate", "value": -0.1932}, {"measurement": "Log2(fold change) LD", "setting": "metabolite LD", "value": 0.8668}, {"measurement": "Log2(fold change) Myristoyl/tetradecanoyl-CoA", "setting": "metabolite Myristoyl/tetradecanoyl-CoA", "value": 0.0000}, {"measurement": "Log2(fold change) N-Acetyl-L-alanine", "setting": "metabolite N-Acetyl-L-alanine", "value": -0.6716}, {"measurement": "Log2(fold change) N-acetyl-L-ornithine", "setting": "metabolite N-acetyl-L-ornithine", "value": 0.0000}, {"measurement": "Log2(fold change) N-acetyl-glucosamine-1/6-phosphate", "setting": "metabolite N-acetyl-glucosamine-1/6-phosphate", "value": -0.1039}, {"measurement": "Log2(fold change) N-acetyl-glutamate", "setting": "metabolite N-acetyl-glutamate", "value": -0.3449}, {"measurement": "Log2(fold change) N-acetyl-glutamine", "setting": "metabolite N-acetyl-glutamine", "value": -1.3853}, {"measurement": "Log2(fold change) N-carbamoyl-L-aspartate", "setting": "metabolite N-carbamoyl-L-aspartate", "value": -0.1955}, {"measurement": "Log2(fold change) NAD+", "setting": "metabolite NAD+", "value": -0.0358}, {"measurement": "Log2(fold change) NADH", "setting": "metabolite NADH", "value": 1.5825}, {"measurement": "Log2(fold change) NADP+", "setting": "metabolite NADP+", "value": 0.0717}, {"measurement": "Log2(fold change) NADPH", "setting": "metabolite NADPH", "value": 1.3580}, {"measurement": "Log2(fold change) O-acetyl-L-serine", "setting": "metabolite O-acetyl-L-serine", "value": 0.0000}, {"measurement": "Log2(fold change) Octoluse 8/1P", "setting": "metabolite Octoluse 8/1P", "value": 0.5111}, {"measurement": "Log2(fold change) Octoluse Bisphosphate", "setting": "metabolite Octoluse Bisphosphate", "value": -0.3203}, {"measurement": "Log2(fold change) PD", "setting": "metabolite PD", "value": -0.9637}, {"measurement": "Log2(fold change) PE", "setting": "metabolite PE", "value": 0.0520}, {"measurement": "Log2(fold change) PEE", "setting": "metabolite PEE", "value": 0.3860}, {"measurement": "Log2(fold change) PEEK", "setting": "metabolite PEEK", "value": 1.9585}, {"measurement": "Log2(fold change) PVNF", "setting": "metabolite PVNF", "value": 0.5887}, {"measurement": "Log2(fold change) Pyroglutamic acid", "setting": "metabolite Pyroglutamic acid", "value": -0.2368}, {"measurement": "Log2(fold change) Pyrophosphate", "setting": "metabolite Pyrophosphate", "value": 0.0000}, {"measurement": "Log2(fold change) Ribose-5-phosphate", "setting": "metabolite Ribose-5-phosphate", "value": -0.2008}, {"measurement": "Log2(fold change) S-adenosyl-L-homocysteine", "setting": "metabolite S-adenosyl-L-homocysteine", "value": 0.3352}, {"measurement": "Log2(fold change) S-adenosyl-L-methioninamine", "setting": "metabolite S-adenosyl-L-methioninamine", "value": 0.0000}, {"measurement": "Log2(fold change) S-adenosyl-L-methionine", "setting": "metabolite S-adenosyl-L-methionine", "value": 0.0000}, {"measurement": "Log2(fold change) S-methyl-5'-thioadenosine", "setting": "metabolite S-methyl-5'-thioadenosine", "value": 0.2721}, {"measurement": "Log2(fold change) SD", "setting": "metabolite SD", "value": -0.1612}, {"measurement": "Log2(fold change) SDL", "setting": "metabolite SDL", "value": 0.5371}, {"measurement": "Log2(fold change) SID", "setting": "metabolite SID", "value": 0.0000}, {"measurement": "Log2(fold change) Sedoheptulose bisphosphate", "setting": "metabolite Sedoheptulose bisphosphate", "value": 0.0035}, {"measurement": "Log2(fold change) Thiamine pyrophosphate", "setting": "metabolite Thiamine pyrophosphate", "value": -0.0731}, {"measurement": "Log2(fold changes) UDP-D-glucose", "setting": "metabolite UDP-D-glucose, log2 fold change", "value": 0.0091}, {"measurement": "Log2(fold changes) UDP-D-glucuronate", "setting": "metabolite UDP-D-glucuronate, log2 fold change", "value": -0.1151}, {"measurement": "Log2(fold changes) UDP-N-acetyl-glucosamine", "setting": "metabolite UDP-N-acetyl-glucosamine, log2 fold change", "value": -0.0367}, {"measurement": "Log2(fold changes) UDP", "setting": "metabolite UDP, log2 fold change", "value": -0.5308}, {"measurement": "Log2(fold changes) UMP", "setting": "metabolite UMP, log2 fold change", "value": 0.0364}, {"measurement": "Log2(fold changes) UTP", "setting": "metabolite UTP, log2 fold change", "value": -0.1207}, {"measurement": "Log2(fold changes) VD", "setting": "metabolite VD, log2 fold change", "value": 0.0000}, {"measurement": "Log2(fold changes) Xanthurenic acid", "setting": "metabolite Xanthurenic acid, log2 fold change", "value": 0.0000}, {"measurement": "Log2(fold changes) a-ketoglutarate", "setting": "metabolite a-ketoglutarate, log2 fold change", "value": -0.4532}, {"measurement": "Log2(fold changes) acetyl-CoA", "setting": "metabolite acetyl-CoA, log2 fold change", "value": -0.3299}, {"measurement": "Log2(fold changes) acetyl-aspartate", "setting": "metabolite acetyl-aspartate, log2 fold change", "value": -0.2105}, {"measurement": "Log2(fold changes) acetylphosphate", "setting": "metabolite acetylphosphate, log2 fold change", "value": 0.0000}, {"measurement": "Log2(fold changes) aconitate", "setting": "metabolite aconitate, log2 fold change", "value": -0.2855}, {"measurement": "Log2(fold changes) adenine", "setting": "metabolite adenine, log2 fold change", "value": 0.0812}, {"measurement": "Log2(fold changes) adenosine 5'-phosphosulfate", "setting": "metabolite adenosine 5'-phosphosulfate, log2 fold change", "value": 0.0000}]}
